Assays:
[1] = system: HT-1080; test: Modulatory profiling: Alamar Blue viability, lethal compound cotreated with death modulator (EC50, AUC); assay type: cell-based; design: AUC, modulator HT.3MA / AUC, modulator HT.ALLN / AUC HT.ATA / AUC HT.ActD / AUC HT.BHA / AUC HT.BHT / AUC HT.BocD / AUC HT.CHX / AUC HT.Co2+ / AUC HT.DPQ / AUC HT.EGTA / AUC HT.Lmim / AUC HT.NAD+ / AUC HT.Nec-1 / AUC HT.SP600125 / AUC HT.TLCK / AUC HT.U0126: unit not given beside the values; conditions: for AUC, modulator HT.3MA: lethal compound cotreated with modulator 3MA; as to AUC HT.BHA: reference of the scale not given here; as to AUC HT.EGTA: reference of the scale not given here
[2] = system: BJeLR; test: as above; assay type: cell-based, human; design: AUC, modulator BJ.Gd3+ / AUC, modulator BJ.LNAME / AUC, modulator BJ.Lmin / AUC, modulator BJ.3MA / AUC, modulator BJ.ALLN / AUC, modulator BJ.Boc D / AUC, modulator BJ.CHX / AUC, modulator BJ.Co2+ / AUC, modulator BJ.Nec-1 / AUC, modulator BJ.Pepstatin / AUC, modulator BJ.TLCK / AUC, modulator BJ.atoc / AUC, modulator BJ.trolox / AUC, modulator BJ.zVAD: unit not given beside the values; conditions: BJeLR cells, modulatory profile value (AUC); for AUC, modulator BJ.3MA: lethal compound cotreated with modulator 3MA; for AUC, modulator BJ.ALLN: lethal compound cotreated with modulator ALLN; for AUC, modulator BJ.Boc D: lethal compound cotreated with modulator Boc D; for AUC, modulator BJ.CHX: lethal compound cotreated with modulator CHX; for AUC, modulator BJ.Co2+: lethal compound cotreated with modulator Co2+; for AUC, modulator BJ.DPQ: lethal compound cotreated with modulator DPQ; for AUC, modulator BJ.Gd3+: lethal compound cotreated with modulator Gd3+; for AUC, modulator BJ.LNAME: lethal compound cotreated with modulator LNAME; for AUC, modulator BJ.Lmin: lethal compound cotreated with modulator Lmin; for AUC, modulator BJ.NAD+: lethal compound cotreated with modulator NAD+; for AUC, modulator BJ.NMMA: lethal compound cotreated with modulator NMMA; for AUC, modulator BJ.Nec-1: lethal compound cotreated with modulator Nec-1; for AUC, modulator BJ.Pepstatin: lethal compound cotreated with modulator Pepstatin; for AUC, modulator BJ.TLCK: lethal compound cotreated with modulator TLCK; for AUC, modulator BJ.atoc: lethal compound cotreated with modulator atoc; for AUC, modulator BJ.trolox: lethal compound cotreated with modulator trolox; for AUC, modulator BJ.zVAD: lethal compound cotreated with modulator zVAD; as to AUC, modulator BJ.3MA: reference of the scale not given here; as to AUC, modulator BJ.ALLN: reference of the scale not given here; as to AUC, modulator BJ.Boc D: reference of the scale not given here; as to AUC, modulator BJ.CHX: reference of the scale not given here; as to AUC, modulator BJ.Co2+: reference of the scale not given here; as to AUC, modulator BJ.DPQ: reference of the scale not given here; as to AUC, modulator BJ.Gd3+: reference of the scale not given here; as to AUC, modulator BJ.LNAME: reference of the scale not given here; as to AUC, modulator BJ.NAD+: reference of the scale not given here; as to AUC, modulator BJ.NMMA: reference of the scale not given here; as to AUC, modulator BJ.Nec-1: reference of the scale not given here; as to AUC, modulator BJ.Pepstatin: reference of the scale not given here; as to AUC, modulator BJ.TLCK: reference of the scale not given here
[3] = HT-1080 cells, modulatory profile value (AUC)

With O=[N+]([O-])c1ccc(O)c([N+](=O)[O-])c1 the “AUC, modulator HT.3MA” value [1, 3] was −0.1332, the “AUC, modulator BJ.3MA” value [2] was −0.008182 and the “AUC, modulator BJ.ALLN” value [2] was −0.03838. For the same compound, the “AUC, modulator BJ.Boc D” value [2] was −0.01714, the “AUC, modulator BJ.CHX” value [2] was 0.189 and the “AUC, modulator BJ.Co2+” value [2] was −0.008316. The “AUC, modulator BJ.DPQ” value [2] was −0.03251, the “AUC, modulator BJ.Gd3+” value [2] was −0.01413 and the “AUC, modulator BJ.LNAME” value [2] was −0.0202. For the same compound, the “AUC, modulator BJ.Lmin” value [2] was −0.0205, the “AUC, modulator BJ.NAD+” value [2] was 0.06986 and the “AUC, modulator BJ.NMMA” value [2] was −0.02735. The “AUC, modulator BJ.Nec-1” value [2] was −0.001955, the “AUC, modulator BJ.Pepstatin” value [2] was 0.05394 and the “AUC, modulator BJ.TLCK” value [2] was −0.0426. The “AUC, modulator BJ.atoc” value [2] was 0.02318, the “AUC, modulator BJ.trolox” value [2] was 0.009957 and the “AUC, modulator BJ.zVAD” value [2] was −0.0001198.
In the case of COc1ccccc1/C=C/C1(C(=O)NC2CCCC2)CC(=O)N1c1ccc(F)cc1 (stereo not shown) [CIL1], the “AUC HT.ATA” value ([1]; HT-1080, modulator ATA) is reported as −0.0478, the “AUC HT.ActD” value ([1]; HT-1080, modulator ActD) is reported as −0.04057 and the “AUC HT.BHA” value ([1]; HT-1080, modulator BHA) is reported as 0.02691. For the same compound, the “AUC HT.BHT” value ([1]; HT-1080, modulator BHT) was −0.0849, the “AUC HT.BocD” value ([1]; HT-1080, modulator BocD) was −0.01644 and the “AUC HT.CHX” value ([1]; HT-1080, modulator CHX) was 0.09163. For the same compound, the “AUC HT.Co2+” value ([1]; HT-1080, modulator Co2+) was 0.2048, the “AUC HT.CspA” value ([1]; HT-1080, modulator CspA) was −0.04542 and the “AUC HT.DPQ” value ([1]; HT-1080, modulator DPQ) was 0.04203. For the same compound, the “AUC HT.EGTA” value ([1]; HT-1080, modulator EGTA) was −0.006602, the “AUC HT.Gd3+” value ([1]; HT-1080, modulator Gd3+) was −0.03215 and the “AUC HT.LNAME” value ([1]; HT-1080, modulator LNAME) was 0.03977. The “AUC HT.Lmim” value ([1]; HT-1080, modulator Lmim) was 0.08631, the “AUC HT.NAD+” value ([1]; HT-1080, modulator NAD+) was 0.07889 and the “AUC HT.NMMA” value ([1]; HT-1080, modulator NMMA) was −0.0482. The “AUC HT.Nec-1” value ([1]; HT-1080, modulator Nec-1) was 0.02294, the “AUC HT.Pepstatin” value ([1]; HT-1080, modulator Pepstatin) was 0.001474 and the “AUC HT.SP600125” value ([1]; HT-1080, modulator SP600125) was −0.04919. For the same compound, the “AUC HT.TLCK” value ([1]; HT-1080, modulator TLCK) was 0.04647, the “AUC HT.U0126” value ([1]; HT-1080, modulator U0126) was 0.1491 and the “HT.atoc (AUC)” value ([1]; HT-1080, modulator atoc) was 0.216. For the same compound, the “HT.bCarotene (AUC)” value ([1]; HT-1080, modulator bCarotene) was −0.02846, the “HT.deferox (AUC)” value ([1]; HT-1080, modulator deferox) was 0.08359 and the “HT.digoxin (AUC)” value ([1]; HT-1080, modulator digoxin) was −0.003809. For the same compound, the “HT.trolox (AUC)” value ([1]; HT-1080, modulator trolox) was 0.02477, the “HT.zVAD (AUC)” value ([1]; HT-1080, modulator zVAD) was −0.0551 and the “AUC, modulator HT.3MA” value [1, 3] was −0.001968. For the same compound, the “AUC, modulator HT.ALLN” value ([1]; HT-1080 cells, lethal compound cotreated with modulator ALLN, modulatory profile value (AUC)) was 0.1053, the “AUC, modulator BJ.3MA” value [2] was 0.0947 and the “AUC, modulator BJ.ALLN” value [2] was −0.03319. For the same compound, the “AUC, modulator BJ.Boc D” value [2] was −0.0465, the “AUC, modulator BJ.CHX” value [2] was −0.08681 and the “AUC, modulator BJ.Co2+” value [2] was 0.09572. For the same compound, the “AUC, modulator BJ.DPQ” value [2] was −0.01655, the “AUC, modulator BJ.Gd3+” value [2] was −0.001577 and the “AUC, modulator BJ.LNAME” value [2] was −0.02103. The “AUC, modulator BJ.Lmin/NAD+” value ([2]; lethal compound cotreated with modulator Lmin/NAD+) was −0.01947, the “AUC, modulator BJ.Lmin” value [2] was −0.0142 and the “AUC, modulator BJ.NAD+” value [2] was 0.03941. For the same compound, the “AUC, modulator BJ.NMMA” value [2] was −0.02498, the “AUC, modulator BJ.Nec-1” value [2] was 0.0816 and the “AUC, modulator BJ.Pepstatin” value [2] was 0.07639. The “AUC, modulator BJ.TLCK” value [2] was 0.01375, the “AUC, modulator BJ.atoc” value [2] was 0.05385 and the “AUC, modulator BJ.trolox” value [2] was 0.08302. The “AUC, modulator BJ.zVAD” value [2] was −0.04705.

— patent publication US10947188B2, “Small molecule ferroptosis inducers” (THE TRUSTEES OF COLUMBIA UNIVERSITY IN THE CITY OF NEW YORK, priority 2016, dated 2021)
